Experiment: Conversion in NO-assay buffer followed by UPLC
Format: physicochemical
Conditions: 37 °C
Method: The time-dependent degradation behavior of compounds 4f, 5a–f, and 6a–d as well as celecoxib was followed by UPLC analysis over a time course of 8 days (Figure 4). For that, compounds were incubated at 37 °C in the presence or absence of cysteine in the assay buffer used for the Griess assay. Samples were withdrawn at distinct time points (1, 5, 23, 47, 70, and 191 h), diluted into a mixture of acetonitrile/water, and analyzed.
The time-dependent conversion of NO-COXIBs 5a–f and 6a–d as well as reference compounds 4f and celecoxib in the presence or absence of cysteine in assay buffer was investigated by following the degradation of intact compound and identification of selected degradation products by UPLC. For that, samples were incubated at 37 °C in the assay buffer in the presence or absence of cysteine and at the indicated time point; 5 µL assay buffer of each sample was withdrawn and diluted with 45 µL MeCN/water (50/50 v/v). The samples were thoroughly vortexed and then subjected to UPLC analysis. All samples of one time point were analyzed within a total analysis time of approximately 2.5 h. Conversion was monitored at 254 nm using the following UPLC system: column Aquity UPLC® HSS C18 column (Waters Corporation, Milford, MA, USA; 100 × 2.1 mm, 1.8 µm, 130 Å), UPLC H-Class (Waters Corporation, Milford, MA, USA): quaternary gradient pump QSM, autosampler FTN, column heater CHA, and diode array detector PDAeλ, γ detector Gabi Star (Raytest Isotopenmeßgeräte GmbH, Straubenhardt, Germany), flow rate 0.4 mL/min, eluent: (A): 0.1% acetic acid in MeCN/MeOH 1/1/(B): 0.1% acetic acid in H2O; gradient: t0min 45/55–t0.5min 45/55–t5.5min 95/5–t7.0min 95/5–t7.2min 45/55–t8.5min 45/55). For the identification of degradation products, samples taken after 24 h were additionally subjected to HPLC-HRMS analysis using HPLC system 6. In brief, the NO-COXIBs were converted to the respective hydroxymethyl-substituted compounds and in the presence of cysteine additionally to the cysteine adduct, which could be identified by the respective Δm/z shifts. A detailed comparison of calculated and found m/z-signals is given in Supplementary Material Table S1, and copies of HPLC-HRMS chromatograms and selected spectra are given in Supplementary Material Figures S56–S66.

SMILES | intact compound (after 8 days (192 h)) [%] | intact compound (after 70 h, absence of cysteine) | intact compound (after 70 h, presence of cysteine)
Cc1ccc(-c2c(Cl)c(CO[N+](=O)[O-])nn2-c2ccc(S(C)(=O)=O)cc2)cc1 [5c, {4-Chloro-1-[4-(methylsulfonyl)phenyl]-5-(p-tolyl)-1H-pyrazol-3-yl}methyl nitrate] | 57 | – | –
CCC(=O)NS(=O)(=O)c1ccc(-n2nc(CO[N+](=O)[O-])cc2-c2ccc(OC)cc2)cc1 [6d, {5-(4-Methoxyphenyl)-1-[4-(N-propionylsulfamoyl)phenyl]-1H-pyrazol-3-yl}methyl nitrate] | – | consumed | quantitatively consumed

From PMC9573605, “Exploring Nitric Oxide (NO)-Releasing Celecoxib Derivatives as Modulators of Radioresponse in Pheochromocytoma Cells” (Molecules, 2022)
